Laboratory results as given in PMC12527173, “Cytotoxic, anti-inflammatory, antioxidant, and anti-glyoxalase-I evaluation of chelating substances: In silico and in vitro study” (PLOS One, 2025).
Where two headings read alike, the source gives them in different places.

Tests used:
[1] = biological target: T1, human recombinant Glo-I enzyme (rhGlo-I) (Homo sapiens, UniProt Q04760); parameters: method as in PMID 34264188; details: prior publication ref 87; read-out: IC50 against Glo-I; cited from earlier work
T1 construct: N-terminal Met and 6-His tag (N); purchased R&D Systems; host or cells: E. coli
T1 sequence (Q04760 2-184 limits assumed): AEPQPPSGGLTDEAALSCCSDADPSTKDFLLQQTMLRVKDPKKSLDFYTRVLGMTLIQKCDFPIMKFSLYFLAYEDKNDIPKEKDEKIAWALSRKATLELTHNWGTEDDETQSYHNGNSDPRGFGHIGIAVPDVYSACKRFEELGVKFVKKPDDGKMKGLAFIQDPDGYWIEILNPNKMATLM

[2] = test system: A549 lung cancer cell line; assay: SRB cytotoxicity assay, A549; type: cell-based; details: Homo sapiens, 72 h incubation, n = 12, read-out: Cytotoxicity (as of %Control) IC50 value A549 lung malignancy
Method: (§1) The cancer cell lines were cultured in DMEM supplemented with 10% FBS (Bio Whittaker, Verviers, Belgium), HEPES Buffer (10 mM), gentamicin (50 µg/mL), L-glutamine (100 μg/mL), streptomycin ([…]), penicillin (100 µg/mL), and 4-(2-hydroxyethyl)-1-piperazineethanesulfonic acid (HEPES) Buffer (Sigma, St. Luis, MO, USA). The Sulforhodamine B used was obtained from Santa Cruz Biotechnology, Inc. in Texas, USA. […] Periodontal ligament fibroblasts (PDL) were utilized to assess specific cytotoxicity. Cancer cell lines that have survived offer several benefits. They provide a consistent and uninterrupted source of cells, so bypassing any ethical concerns related to the use of human tissue. Additionally, they are cost-effective. The cytotoxicity levels were assessed using the Sulforhodamine B (SRB) colorimetric assay, provided by Santa Cruz Biotechnology, Inc. in Texas, USA. The Spectro Scan 80D UV-VIS spectrophotometer, manufactured by Sedico Ltd. in Nicosia, Cyprus, was employed for this cytotoxicity screening. The cells were co-incubated with substances or a reference agent at various doses ranging from 5 to 200 μg/mL. […] The reduction in cell viability was analyzed by plotting Dose-response curves and expressing the data as a percentage of the control optical density. The IC50 values were obtained using regression analysis.

[3] = test system: CACO2 colorectal cancer cell line; assay: SRB cytotoxicity assay, CACO2; type: cell-based; details: Homo sapiens, Caco-2, 72 h incubation, n = 12, read-out: Cytotoxicity (as of %Control) IC50 value CACO2
Method: as §1

[4] = test system: PANC1 pancreatic cell line; assay: SRB cytotoxicity assay, PANC1; type: cell-based; details: Homo sapiens, PANC-1, 72 h incubation, n = 12, read-out: Cytotoxicity (as of %Control) IC50 value PANC1
Method: as §1

[5] = test system: Human PC3 prostate cancer cell line; assay: SRB cytotoxicity assay, PC3; type: cell-based; details: 72 h incubation, n = 12, read-out: Cytotoxicity (as of %Control) IC50 value PC3 prostate malignancy
Method: as §1

[6] = test system: T47D breast cancer cell line; assay: SRB cytotoxicity assay, T47D; type: cell-based; details: Homo sapiens, 72 h incubation, n = 12, read-out: Cytotoxicity (as of %Control) IC50 value T47D mammary malignancy
Method: as §1

[7] = test system: SW480 colorectal cancer cell line; assay: SRB cytotoxicity assay, SW480; type: cell-based; details: Homo sapiens, 72 h incubation, n = 12, read-out: Cytotoxicity (as of %Control) IC50 value SW480
Method: as §1

[8] = test system: Breast cancer cell line MCF7; assay: SRB cytotoxicity assay, MCF7; type: cell-based; details: Homo sapiens, 72 h incubation, n = 12, read-out: Cytotoxicity (as of %Control) IC50 value MCF7 mammary malignancy
Method: as §1

[9] = SRB cytotoxicity assay, normal PDL fibroblasts; type: cell-based; details: normal periodontal ligament (PDL) fibroblasts, 72 h incubation, 0.1–200 µM range, read-out: Cytotoxicity (as of %Control) IC50 value PDL fibroblasts
Method: as §1

[10] = DPPH free radical scavenger assay; details: DPPH radical scavenging; n = 12
Text: This approach relies on the reduction of the radicals, which causes a change in colour from oxidized purple to reduced yellow. Primarily, Diphenyl-2-picryl-hydrazyl (DPPH) is reduced in a solution of methanol (MeOH) when a chemical that donates hydrogen is present. This reduction is due to the creation of the non-radical form DPPH-H. The alteration in colour can be precisely assessed by employing a spectrophotometer within the wavelength range of 515–520 nm. Unlike other assays for radical scavenging, the DPPH radical is stable and yields consistent spectroscopic data. A 0.2 mM DPPH solution was diluted with MeOH and then combined with treatment compounds and ascorbic acid in a 1:1 concentration ratio using a 96-well plate. […] The solution was then incubated for one hour, isolated from light. Subsequently, the alteration in absorbance at a wavelength of 517 nm was quantified using a microplate reader manufactured by Bio-Tek Instrument in the United States. Ascorbic acid served as a strong and traditional benchmark for comparing the effectiveness of radical scavenging agents. The DPPH radical scavenging activity inhibition was calculated using the following equation, where A denotes photometric absorbance: The formula to calculate the percentage difference between a control and a sample is: (A control – A sample)/ A control x 100% [71, 72].

[11] = test system: HT-29 colorectal cancer cell line; assay: SRB cytotoxicity assay, HT29; type: cell-based; details: Homo sapiens, 72 h incubation, n = 12, read-out: Cytotoxicity (as of %Control) IC50 value HT29
Method: as §1

[12] = test system: HCT116 colorectal cancer cell line; assay: SRB cytotoxicity assay, HCT116; type: cell-based; details: Homo sapiens, HCT-116, 72 h incubation, n = 12, read-out: Cytotoxicity (as of %Control) IC50 value HCT116
Method: as §1

[13] = test system: HeLa uterine cervix adenocarcinoma cell line; assay: SRB cytotoxicity assay, HeLa; type: cell-based; details: Homo sapiens, 72 h incubation, n = 12, read-out: Cytotoxicity (as of %Control) IC50 value Hela cervix malignancy
Method: as §1

[14] = test system: LPS-primed RAW 264.7 murine macrophages (nitrite / iNOS); assay: Anti-inflammatory (nitrite) determination in LPS-primed macrophages; type: cell-based; details: Mus musculus
Method: The RAW 264.7 mouse macrophage cell line (ATCC® TIB-71) was cultivated in high glucose DMEM with 10% foetal bovine serum (FBS), 100 U/mL penicillin, 100 μg/mL streptomycin, and 100 μg/mL L-glutamate. The cells were incubated at 37°C in a humidified environment with 95% air and 5% CO2. Confluent macrophages (2 x 10^5/well) were cultured with lipopolysaccharide (LPS; 20 μg/mL; Sigma, St. Luis, MO, USA) and indomethacin (25–200 μg/mL) as the positive control, along with various concentrations (5–200 μg/mL) of treatment compounds. The cells were incubated for 24 hours. 100 μL of Griess reagent were combined with 100 μL portions of cell culture medium and left to incubate at room temperature for 10 minutes. The absorbance at a wavelength of 550 nm was measured using a microplate reader, namely the Spectro Scan 80D UV-VIS spectrophotometer manufactured by Sedico Ltd. in Nicosia, Cyprus. The nitrite concentration was assessed by comparing it to a standard curve of sodium nitrite. A cytotoxicity protocol using SRB was conducted to assess the impact of the test substances under study on RAW 264.7 viability.

[15] = test system: A375 human skin cancer cell line; assay: SRB cytotoxicity assay, A375; type: cell-based; details: A-375, 72 h incubation, n = 12, read-out: Cytotoxicity (as of %Control) IC50 value A375 skin melanoma
Method: as §1

[16] = test system: SW620 colorectal cancer cell line; assay: SRB cytotoxicity assay, SW620; type: cell-based; details: Homo sapiens, SW-620, 72 h incubation, n = 12, read-out: Cytotoxicity (as of %Control) IC50 value SW620
Method: as §1

Compound | IC50 [1] | IC50 [2] | IC50 [3] | IC50 [4] | IC50 [5] | IC50 [6] | IC50 [7] | IC50 [8] | IC50 at 72 h [9] | IC50 [10] | IC50 [11] | IC50 [12] | IC50 [13] | IC50 ([14]; RAW264.7, 24 h, read-out: iNOS- IC50 value) | IC50 ([14]; RAW264.7, read-out: IC50, ability to reduce inflammation) | IC50 [15] | IC50 [16]
C[C@H](Cc1ccc(O)c(O)c1)[C@@H](C)Cc1ccc(O)c(O)c1 [4,4’-((2R,3S)-2,3-dimethylbutane-1,4-diyl)bis(benzene-1,2-diol)] | 0.0365 µM | – | – | – | – | – | – | – | – | – | – | – | – | – | – | – | –
O=c1c(O)c(-c2cc(O)c(O)c(O)c2)oc2cc(O)cc(O)c12 [Myricetin, reference compound] | – | 27.5 ± 4.47 µM | 106.5 ± 0.6 µM | 198 ± 43 µM | 65.4 ± 1.84 µM | 29.8 ± 2.6 µM | 88.9 ± 14.1 µM | 73 ± 0.78 µM | > 200 µM | 70.7 ± 11.6 µM | 32.6 ± 1.06 µM | 44.7 ± 2.14 µM | 35.8 ± 4.4 µM | 0.07 ± 0.01 µM | 0.05 µM | 51.7 ± 4.1 µM | 42.8 ± 0.78 µM
